In ChEMBL document CHEMBL5465560, “Selectivity Literature for EUbOPEN Chemogenomic Library” (2024):
pIC50: −log10 of the molar value. One block for each compound: values may come before it.

How the values were obtained:
[1] = target: T1, Myosin light chain kinase, smooth muscle (Homo sapiens, UniProt Q15746); conditions: at 10 µM
[2] = target: T2, Mitogen-activated protein kinase 9 (Homo sapiens, UniProt P45984); assay: Selectivity interaction (Millipore kinase profiler) EUB0000124b MAPK9; conditions: at 10 µM
T2 sequence (P45984 whole entry, looked up): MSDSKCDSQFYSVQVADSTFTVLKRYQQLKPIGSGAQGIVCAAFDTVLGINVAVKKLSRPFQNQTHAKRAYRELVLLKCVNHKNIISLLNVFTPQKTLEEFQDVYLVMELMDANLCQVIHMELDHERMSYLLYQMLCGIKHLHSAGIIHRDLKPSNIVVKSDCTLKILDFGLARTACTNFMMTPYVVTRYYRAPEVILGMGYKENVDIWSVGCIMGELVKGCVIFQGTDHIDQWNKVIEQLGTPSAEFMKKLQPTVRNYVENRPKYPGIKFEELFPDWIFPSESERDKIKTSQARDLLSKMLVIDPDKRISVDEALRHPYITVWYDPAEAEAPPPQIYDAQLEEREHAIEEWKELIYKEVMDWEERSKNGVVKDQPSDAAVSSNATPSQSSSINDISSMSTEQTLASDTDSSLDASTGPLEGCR

[3] = target: Cyclin-dependent kinase 2/cyclin A (Homo sapiens, UniProt P24941); assay: Selectivity interaction (Enyzmatic assay) EUB0000601a CDK2; assay type: protein-complex assay
[4] = target: T3, MAP/microtubule affinity-regulating kinase 4 (Homo sapiens) (UniProt Q96L34); assay: Selectivity interaction (KinomeScan (DiscoverX)) EUB0001049a MARK4; conditions: at 1 µM
T3 sequence (whole entry): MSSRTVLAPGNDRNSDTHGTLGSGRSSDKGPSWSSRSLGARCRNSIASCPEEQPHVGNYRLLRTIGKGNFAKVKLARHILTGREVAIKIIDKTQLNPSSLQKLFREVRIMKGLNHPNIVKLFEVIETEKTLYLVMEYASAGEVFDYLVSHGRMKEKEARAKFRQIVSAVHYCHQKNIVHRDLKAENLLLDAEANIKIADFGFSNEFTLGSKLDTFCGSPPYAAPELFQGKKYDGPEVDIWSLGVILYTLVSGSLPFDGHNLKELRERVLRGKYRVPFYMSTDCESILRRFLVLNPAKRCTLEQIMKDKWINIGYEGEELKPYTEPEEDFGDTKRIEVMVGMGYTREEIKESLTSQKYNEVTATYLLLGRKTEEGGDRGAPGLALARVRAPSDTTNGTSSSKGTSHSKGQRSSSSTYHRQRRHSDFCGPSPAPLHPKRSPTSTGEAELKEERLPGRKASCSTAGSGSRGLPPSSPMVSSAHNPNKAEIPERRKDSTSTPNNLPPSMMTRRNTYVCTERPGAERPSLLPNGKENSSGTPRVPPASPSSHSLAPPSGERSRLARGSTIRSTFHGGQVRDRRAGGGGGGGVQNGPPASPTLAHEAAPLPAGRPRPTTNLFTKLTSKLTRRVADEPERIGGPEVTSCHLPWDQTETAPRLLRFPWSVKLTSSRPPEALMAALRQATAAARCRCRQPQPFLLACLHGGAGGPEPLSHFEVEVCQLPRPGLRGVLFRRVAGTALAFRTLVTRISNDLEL

[5] = target: Serine/threonine-protein kinase WNK2 (Homo sapiens) (UniProt Q9Y3S1); assay: Selectivity interaction (ActivX KiNativ screen (kinase selectivity in THP-1 cell lysates)) EUB0000639a WNK2; assay type: subcellular; conditions: lysate, at 0.01 µM
Chain of Serine/threonine-protein kinase WNK2 (Homo sapiens) (Q9Y3S1 whole entry): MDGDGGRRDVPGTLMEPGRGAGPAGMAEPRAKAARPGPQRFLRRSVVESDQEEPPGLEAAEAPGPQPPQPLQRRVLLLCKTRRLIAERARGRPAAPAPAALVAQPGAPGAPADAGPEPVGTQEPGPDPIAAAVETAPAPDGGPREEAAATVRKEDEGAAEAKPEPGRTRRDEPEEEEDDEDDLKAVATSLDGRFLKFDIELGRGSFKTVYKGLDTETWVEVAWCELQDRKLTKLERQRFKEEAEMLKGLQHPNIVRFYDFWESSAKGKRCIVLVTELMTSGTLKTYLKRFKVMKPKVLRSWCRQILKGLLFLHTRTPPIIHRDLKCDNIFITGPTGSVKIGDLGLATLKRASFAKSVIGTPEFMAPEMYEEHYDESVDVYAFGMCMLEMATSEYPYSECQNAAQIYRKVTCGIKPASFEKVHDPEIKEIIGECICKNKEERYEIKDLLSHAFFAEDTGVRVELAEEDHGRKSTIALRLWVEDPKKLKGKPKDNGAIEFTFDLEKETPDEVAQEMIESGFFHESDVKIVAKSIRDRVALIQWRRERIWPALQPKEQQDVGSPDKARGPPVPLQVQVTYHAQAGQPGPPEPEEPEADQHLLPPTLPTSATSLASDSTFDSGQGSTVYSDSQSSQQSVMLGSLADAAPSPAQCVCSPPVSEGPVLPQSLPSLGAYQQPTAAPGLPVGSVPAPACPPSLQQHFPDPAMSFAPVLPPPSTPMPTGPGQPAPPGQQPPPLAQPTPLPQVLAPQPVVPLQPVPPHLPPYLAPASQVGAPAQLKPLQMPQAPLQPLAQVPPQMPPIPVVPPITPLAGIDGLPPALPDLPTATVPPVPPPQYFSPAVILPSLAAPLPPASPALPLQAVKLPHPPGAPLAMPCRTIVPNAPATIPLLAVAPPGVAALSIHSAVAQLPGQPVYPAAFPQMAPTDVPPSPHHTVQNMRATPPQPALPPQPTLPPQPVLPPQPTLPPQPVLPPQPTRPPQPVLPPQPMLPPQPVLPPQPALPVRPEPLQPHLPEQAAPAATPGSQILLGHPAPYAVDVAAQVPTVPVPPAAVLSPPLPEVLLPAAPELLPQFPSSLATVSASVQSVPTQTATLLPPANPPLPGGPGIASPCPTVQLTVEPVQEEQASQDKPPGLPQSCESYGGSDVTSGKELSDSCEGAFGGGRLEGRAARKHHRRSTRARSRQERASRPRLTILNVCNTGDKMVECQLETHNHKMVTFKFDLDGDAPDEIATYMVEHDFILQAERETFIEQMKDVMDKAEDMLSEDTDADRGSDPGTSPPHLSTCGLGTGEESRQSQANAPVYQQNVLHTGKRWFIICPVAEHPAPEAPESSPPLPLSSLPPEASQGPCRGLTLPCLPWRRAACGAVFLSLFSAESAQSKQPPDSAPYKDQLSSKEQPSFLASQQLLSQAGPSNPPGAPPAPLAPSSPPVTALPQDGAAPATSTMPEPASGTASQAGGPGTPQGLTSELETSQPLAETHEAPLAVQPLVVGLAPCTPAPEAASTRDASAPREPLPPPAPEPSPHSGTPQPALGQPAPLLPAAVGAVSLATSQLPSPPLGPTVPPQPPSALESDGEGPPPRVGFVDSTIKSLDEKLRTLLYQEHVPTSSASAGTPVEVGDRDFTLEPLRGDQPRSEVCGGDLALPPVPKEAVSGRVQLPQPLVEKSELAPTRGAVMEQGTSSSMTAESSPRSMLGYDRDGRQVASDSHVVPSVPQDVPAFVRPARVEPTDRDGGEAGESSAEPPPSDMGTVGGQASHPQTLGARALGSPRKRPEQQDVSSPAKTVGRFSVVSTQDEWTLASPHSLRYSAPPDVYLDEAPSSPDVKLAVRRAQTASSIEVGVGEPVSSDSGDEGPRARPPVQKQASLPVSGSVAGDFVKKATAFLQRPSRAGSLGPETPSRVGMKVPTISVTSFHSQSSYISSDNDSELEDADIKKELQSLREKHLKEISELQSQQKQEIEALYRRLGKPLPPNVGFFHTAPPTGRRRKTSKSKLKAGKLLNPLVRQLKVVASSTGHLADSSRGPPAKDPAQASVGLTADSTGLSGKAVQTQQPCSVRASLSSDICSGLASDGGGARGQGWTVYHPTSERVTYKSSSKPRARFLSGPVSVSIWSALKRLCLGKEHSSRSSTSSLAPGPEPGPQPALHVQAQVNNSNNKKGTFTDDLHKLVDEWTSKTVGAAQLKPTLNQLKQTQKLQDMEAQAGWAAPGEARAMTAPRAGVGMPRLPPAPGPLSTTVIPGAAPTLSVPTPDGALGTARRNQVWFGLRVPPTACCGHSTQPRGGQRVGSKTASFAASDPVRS

[6] = target: T4, Receptor-interacting serine/threonine-protein kinase 1 (Homo sapiens) (UniProt Q13546); assay: Selectivity interaction (KinomeScan (DiscoverX)) EUB0000229b RIPK1; conditions: at 10 µM
T4 sequence (whole entry): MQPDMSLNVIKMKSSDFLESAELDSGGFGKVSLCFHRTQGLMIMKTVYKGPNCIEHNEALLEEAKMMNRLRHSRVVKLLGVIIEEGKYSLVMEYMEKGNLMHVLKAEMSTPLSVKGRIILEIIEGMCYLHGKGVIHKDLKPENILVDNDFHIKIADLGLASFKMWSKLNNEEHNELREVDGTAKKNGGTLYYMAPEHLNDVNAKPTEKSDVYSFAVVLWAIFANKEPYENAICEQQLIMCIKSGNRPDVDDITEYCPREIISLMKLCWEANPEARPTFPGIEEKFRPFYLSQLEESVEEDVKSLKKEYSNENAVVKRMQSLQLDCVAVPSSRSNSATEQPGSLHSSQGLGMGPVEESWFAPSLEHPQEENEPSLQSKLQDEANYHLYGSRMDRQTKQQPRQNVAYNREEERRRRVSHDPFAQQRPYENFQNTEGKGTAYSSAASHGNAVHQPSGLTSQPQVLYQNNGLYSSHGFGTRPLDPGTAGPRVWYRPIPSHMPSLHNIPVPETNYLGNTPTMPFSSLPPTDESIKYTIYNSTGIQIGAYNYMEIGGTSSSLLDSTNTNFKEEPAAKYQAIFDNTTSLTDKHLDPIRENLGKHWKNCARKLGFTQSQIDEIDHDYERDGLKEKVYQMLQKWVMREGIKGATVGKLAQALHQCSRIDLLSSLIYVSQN

[7] = target: T1, Myosin light chain kinase, smooth muscle; assay: Selectivity interaction (KinomeScan (DiscoverX)) EUB0001079a MYLK; conditions: at 1 µM
[8] = target: T5, Dual specificity mitogen-activated protein kinase kinase 6 (Homo sapiens) (UniProt P52564); assay: Selectivity interaction (Upstate Kinase Profiler service (Millipore)) EUB0000056c MAP2K6; conditions: at 1 µM
T5 sequence (whole entry): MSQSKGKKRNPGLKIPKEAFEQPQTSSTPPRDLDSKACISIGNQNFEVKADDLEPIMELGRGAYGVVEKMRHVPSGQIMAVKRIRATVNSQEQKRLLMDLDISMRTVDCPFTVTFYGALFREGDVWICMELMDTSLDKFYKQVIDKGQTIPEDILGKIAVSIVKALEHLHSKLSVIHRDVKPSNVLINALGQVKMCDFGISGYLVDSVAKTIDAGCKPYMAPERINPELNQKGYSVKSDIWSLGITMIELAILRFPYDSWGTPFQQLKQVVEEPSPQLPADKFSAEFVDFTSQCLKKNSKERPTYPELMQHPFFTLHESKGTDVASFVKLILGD

[9] = target: Serine/threonine-protein kinase Nek7 (Homo sapiens) (UniProt Q8TDX7); assay: Selectivity interaction (Kinase panel (DSF assay)) EUB0001559a NEK7
Chain of Serine/threonine-protein kinase Nek7 (Homo sapiens) (Q8TDX7 whole entry, looked up): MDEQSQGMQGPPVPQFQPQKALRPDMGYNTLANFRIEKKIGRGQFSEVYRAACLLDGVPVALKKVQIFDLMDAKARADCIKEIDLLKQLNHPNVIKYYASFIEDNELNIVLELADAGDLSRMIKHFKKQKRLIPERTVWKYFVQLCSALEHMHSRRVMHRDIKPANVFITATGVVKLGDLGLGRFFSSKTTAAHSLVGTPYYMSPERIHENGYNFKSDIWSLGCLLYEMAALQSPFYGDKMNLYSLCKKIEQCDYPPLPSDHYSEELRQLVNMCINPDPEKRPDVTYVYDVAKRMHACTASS

[10] = target: T2, Mitogen-activated protein kinase 9; assay: Selectivity interaction (KinomeScan (DiscoverX)) EUB0000607a MAPK9; conditions: at 10 µM
[11] = target: Calcium/calmodulin-dependent protein kinase type II subunit gamma (Homo sapiens) (UniProt Q13555); assay: Selectivity interaction (KinomeScan (DiscoverX)) EUB0000666a CAMK2G; conditions: at 10 µM

T1 sequence (Q15746 whole entry): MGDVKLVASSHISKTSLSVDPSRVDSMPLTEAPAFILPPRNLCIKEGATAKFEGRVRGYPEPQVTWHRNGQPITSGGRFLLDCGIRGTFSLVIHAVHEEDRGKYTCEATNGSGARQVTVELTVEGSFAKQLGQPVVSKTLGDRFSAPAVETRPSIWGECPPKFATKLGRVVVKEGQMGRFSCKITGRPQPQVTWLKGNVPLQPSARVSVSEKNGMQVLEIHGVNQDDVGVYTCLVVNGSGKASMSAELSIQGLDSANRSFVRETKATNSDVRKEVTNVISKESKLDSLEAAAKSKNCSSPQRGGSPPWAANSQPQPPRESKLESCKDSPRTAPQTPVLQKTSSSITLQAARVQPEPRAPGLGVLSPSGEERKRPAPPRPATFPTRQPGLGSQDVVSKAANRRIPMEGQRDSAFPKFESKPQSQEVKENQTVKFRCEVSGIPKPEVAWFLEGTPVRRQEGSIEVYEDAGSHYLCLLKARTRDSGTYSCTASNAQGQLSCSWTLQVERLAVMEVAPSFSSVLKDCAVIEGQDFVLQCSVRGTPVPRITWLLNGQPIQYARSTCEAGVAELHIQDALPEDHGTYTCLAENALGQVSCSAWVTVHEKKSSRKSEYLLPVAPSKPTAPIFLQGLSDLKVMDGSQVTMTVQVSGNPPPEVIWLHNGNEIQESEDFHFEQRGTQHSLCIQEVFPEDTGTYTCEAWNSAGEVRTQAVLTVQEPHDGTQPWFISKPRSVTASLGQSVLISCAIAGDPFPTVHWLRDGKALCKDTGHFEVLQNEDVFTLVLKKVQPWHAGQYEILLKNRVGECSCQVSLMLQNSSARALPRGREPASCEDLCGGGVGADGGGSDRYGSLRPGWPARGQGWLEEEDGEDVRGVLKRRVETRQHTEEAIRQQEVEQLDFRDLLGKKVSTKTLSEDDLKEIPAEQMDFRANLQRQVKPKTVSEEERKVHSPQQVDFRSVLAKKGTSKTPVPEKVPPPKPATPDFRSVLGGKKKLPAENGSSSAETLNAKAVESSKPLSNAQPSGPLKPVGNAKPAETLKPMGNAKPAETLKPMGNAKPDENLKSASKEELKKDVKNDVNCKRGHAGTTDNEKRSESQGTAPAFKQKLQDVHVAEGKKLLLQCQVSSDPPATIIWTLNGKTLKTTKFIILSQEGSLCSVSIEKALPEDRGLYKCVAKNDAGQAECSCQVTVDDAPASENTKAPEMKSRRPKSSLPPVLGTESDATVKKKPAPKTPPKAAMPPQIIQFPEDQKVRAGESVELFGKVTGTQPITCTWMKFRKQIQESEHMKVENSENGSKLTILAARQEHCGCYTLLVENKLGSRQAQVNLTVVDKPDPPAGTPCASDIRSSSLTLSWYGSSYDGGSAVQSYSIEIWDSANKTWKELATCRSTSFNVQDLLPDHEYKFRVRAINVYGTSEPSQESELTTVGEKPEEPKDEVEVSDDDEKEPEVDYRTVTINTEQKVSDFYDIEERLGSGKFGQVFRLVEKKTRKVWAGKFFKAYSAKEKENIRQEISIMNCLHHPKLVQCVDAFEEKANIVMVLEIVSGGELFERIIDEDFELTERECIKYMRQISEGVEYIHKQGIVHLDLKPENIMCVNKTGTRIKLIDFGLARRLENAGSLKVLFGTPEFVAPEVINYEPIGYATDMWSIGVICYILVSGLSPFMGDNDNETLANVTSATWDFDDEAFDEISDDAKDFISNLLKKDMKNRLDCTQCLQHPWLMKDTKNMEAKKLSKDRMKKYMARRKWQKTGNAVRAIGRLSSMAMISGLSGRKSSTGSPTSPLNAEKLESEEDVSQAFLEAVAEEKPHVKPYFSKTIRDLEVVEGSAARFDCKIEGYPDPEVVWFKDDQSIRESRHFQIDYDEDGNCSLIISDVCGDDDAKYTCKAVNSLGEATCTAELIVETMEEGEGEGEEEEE

SMILES: Cc1cc([C@@H](C)Nc2ccccc2C(=O)O)c2nc(N3CCOCC3)cc(=O)n2c1 [AZD-6482]
% of control [1]: 100%

% of control [2]: 97%
SMILES: CC(=O)Nc1cccc(-n2c(=O)n(C3CC3)c(=O)c3c(Nc4ccc(I)cc4F)n(C)c(=O)c(C)c32)c1

pIC50 [3]: < 5.00
SMILES: CCc1cc(Nc2nccc(-c3c(-c4ccc(OC)c(C(=O)Nc5c(F)cccc5F)c4)nc4ccccn34)n2)c(OC)cc1N1CCC(N2CCN(S(C)(=O)=O)CC2)CC1

SMILES: COc1cc(Nc2nc(C)cc(-c3cnn4nc(OC)ccc34)n2)cc(C(F)(F)F)c1
% of control [4]: 100%

% of inhibition [5]: 3.3%
SMILES: CC[C@@H]1[C@H](F)C(=O)N[C@@H]1COc1nccc2cc(C(N)=O)c(OC)cc12 [ZIMLOVISERTIB]

SMILES: COc1cc(N(C)c2ccnc3ccc(C(F)(F)F)cc23)cc(OC)c1OC
% binding [6]: 98%

SMILES: Nc1cnc(N2CCc3cc(S(=O)(=O)Nc4c(F)cc(Cl)cc4F)cc(N4CCCC4=O)c32)nc1 [TP-020n]
% of control [7]: 91%

% of inhibition [8]: 2%
SMILES: Cc1ccc(-c2ccc3c(ccc4sc5c(c43)NC[C@@H](C)NC5=O)n2)cn1

dTM [9]: 0.5 K
SMILES: CN(C(=O)c1cnn2cccnc12)c1cc2c(cc1N1CCOCC1)C(=O)N(C[C@@H](F)C(C)(C)O)C2

SMILES: CNC(=O)Nc1ccc(-c2nc(N3CC4CCC(C3)O4)c3cnn(C4CCC5(CC4)OCCO5)c3n2)cc1
% of control [10]: 85%

SMILES: O=C(NOC[C@H](O)CO)c1ccc(F)c(F)c1Nc1ccc(I)cc1F
% of control [11]: 100%
